Assay results taken from publication PMC5007552, “The hVps34‐SGK3 pathway alleviates sustained PI3K/Akt inhibition by stimulating mTORC1 and tumour growth” (The EMBO Journal, 2016).
Several values for one entry are separate records, joined by “and”; a condition that tells them apart may be missing. Equal entries are not always repeated.

System: ZR-75-1 cells
Assay: NanoString human kinome mRNA quantification
Format: cell-based
From the text: Human mRNAs were hybridised to NanoString human kinome and control code sets, then subjected to quantification using NanoString software. […] To permit data compaction, and simple kinome‐wide comparisons, the fold changes are log2 transformed. […] Cell pellets were resuspended at a concentration of ~6,500 cells/μl in RLT buffer (Qiagen). […] For total copy numbers, triplicate normalised count values were averaged, and to calculate fold induction, means were divided by triplicate mean values from matched DMSO controls. P‐values were calculated using unpaired t‐test (GraphPad Prism software) by employing treated and control count data for each kinase mRNA.

Q: `NC1(c2ccc(-c3nc4ccn5c(=O)[nH]nc5c4cc3-c3ccccc3)cc2)CCC1` [MK-2206] was tested. Which “Normalised counts HIPK1” value (HIPK1 mRNA, single replicates) did it give?
A: 558.67 and 555.89 and 631.82

Q: What about the “Average normalised counts HIPK2” value (HIPK2 mRNA, average of 3 replicates) of the same compound?
A: 697.1

Q: And the “Normalised counts HIPK2” value (HIPK2 mRNA, single replicates)?
A: 690.47 and 698.36 and 702.47

Q: And the “Average normalised counts HIPK3” value (HIPK3 mRNA, average of 3 replicates)?
A: 924.78

Q: And the “Normalised counts HIPK3” value (HIPK3 mRNA, single replicates)?
A: 914.99 and 915.54 and 943.81

Q: What about the “Average normalised counts HIPK4” value (HIPK4 mRNA, average of 3 replicates) of the same compound?
A: 8.793

Q: And the “Normalised counts HIPK4” value (HIPK4 mRNA, single replicates)?
A: 13.29 and 6.84 and 6.25

Q: And the “Average normalised counts HSPB8” value (HSPB8 mRNA, average of 3 replicates)?
A: 703.253

Q: What about the “Normalised counts HSPB8” value (HSPB8 mRNA, single replicates) of the same compound?
A: 670.48 and 739.19 and 700.09

Q: What about the “Average normalised counts HUNK” value (HUNK mRNA, average of 3 replicates) of the same compound?
A: 120.407

Q: And the “Normalised counts HUNK” value (HUNK mRNA, single replicates)?
A: 115.1 and 122.38 and 123.74

Q: And the “Average normalised counts HUS1” value (HUS1 mRNA, average of 3 replicates)?
A: 872.423

Q: And the “Normalised counts HUS1” value (HUS1 mRNA, single replicates)?
A: 841.36 and 886.88 and 889.03

Q: And the “Average normalised counts IGF1R” value (IGF1R mRNA, average of 3 replicates)?
A: 2361.57

Q: And the “Normalised counts IGF1R” value (IGF1R mRNA, single replicates)?
A: 2300.25 and 2376.77 and 2407.7

Q: And the “Average normalised counts IKBKB” value (IKBKB mRNA, average of 3 replicates)?
A: 768.703

Q: And the “Normalised counts IKBKB” value (IKBKB mRNA, single replicates)?
A: 749.55 and 764.38 and 792.18

Q: What about the “Average normalised counts IKBKE” value (IKBKE mRNA, average of 3 replicates) of the same compound?
A: 224.477

Q: And the “Normalised counts IKBKE” value (IKBKE mRNA, single replicates)?
A: 217.95 and 203.13

Q: And the “Average normalised counts ILK” value (ILK mRNA, average of 3 replicates)?
A: 435.073

Q: What about the “Normalised counts ILK” value (ILK mRNA, single replicates) of the same compound?
A: 419.6 and 422.1 and 463.52

Q: And the “Average normalised counts INSR” value (INSR mRNA, average of 3 replicates)?
A: 414.107

Q: What about the “Normalised counts INSR” value (INSR mRNA, single replicates) of the same compound?
A: 395.06 and 455.98 and 391.28

Q: What about the “Average normalised counts INSRR” value (INSRR mRNA, average of 3 replicates) of the same compound?
A: 3.12

Q: What about the “Normalised counts INSRR” value (INSRR mRNA, single replicates) of the same compound?
A: 2.39 and 5.97 and 1

Q: What about the “Average normalised counts IRAK1” value (IRAK1 mRNA, average of 3 replicates) of the same compound?
A: 1144.48

Q: What about the “Normalised counts IRAK1” value (IRAK1 mRNA, single replicates) of the same compound?
A: 1168.59 and 1134.47 and 1130.37

Q: What about the “Average normalised counts IRAK2” value (IRAK2 mRNA, average of 3 replicates) of the same compound?
A: 17.2833

Q: What about the “Normalised counts IRAK2” value (IRAK2 mRNA, single replicates) of the same compound?
A: 12.38 and 18.13 and 21.34

Q: And the “Average normalised counts IRAK3” value (IRAK3 mRNA, average of 3 replicates)?
A: 4.617

Q: And the “Normalised counts IRAK3” value (IRAK3 mRNA, single replicates)?
A: 3.29 and 5.1 and 5.46

Q: And the “Average normalised counts IRAK4” value (IRAK4 mRNA, average of 3 replicates)?
A: 506.37

Q: What about the “Normalised counts IRAK4” value (IRAK4 mRNA, single replicates) of the same compound?
A: 495.95 and 488.99 and 534.17

Q: And the “Average normalised counts ITK” value (ITK mRNA, average of 3 replicates)?
A: 1.763

Q: And the “Normalised counts ITK” value (ITK mRNA, single replicates)?
A: 3.29 and 1 (2×)

Q: And the “Average normalised counts JAK1” value (JAK1 mRNA, average of 3 replicates)?
A: 943.323

Q: What about the “Normalised counts JAK1” value (JAK1 mRNA, single replicates) of the same compound?
A: 967.71 and 921.63 and 940.63

Q: And the “Average normalised counts JAK2” value (JAK2 mRNA, average of 3 replicates)?
A: 378.063

Q: And the “Normalised counts JAK2” value (JAK2 mRNA, single replicates)?
A: 379.61 and 384.74 and 369.84

Q: What about the “Average normalised counts JAK3” value (JAK3 mRNA, average of 3 replicates) of the same compound?
A: 2.113

Q: And the “Normalised counts JAK3” value (JAK3 mRNA, single replicates)?
A: 1.48 and 3.37 and 1.49

Q: And the “Average normalised counts KALRN” value (KALRN mRNA, average of 3 replicates)?
A: 1

Q: What about the “Normalised counts KALRN” value (KALRN mRNA, single replicates) of the same compound?
A: 1

Q: What about the “Average normalised counts KDR” value (KDR mRNA, average of 3 replicates) of the same compound?
A: 1.163

Q: And the “Normalised counts KDR” value (KDR mRNA, single replicates)?
A: 1 (2×) and 1.49

Q: And the “Average normalised counts KIAA1804” value (KIAA1804 mRNA, average of 3 replicates)?
A: 209.647

Q: And the “Normalised counts KIAA1804” value (KIAA1804 mRNA, single replicates)?
A: 226.9 and 199.7 and 202.34

Q: And the “Average normalised counts KIT” value (KIT mRNA, average of 3 replicates)?
A: 1

Q: And the “Normalised counts KIT” value (KIT mRNA, single replicates)?
A: 1

Q: What about the “Average normalised counts KSR1” value (KSR1 mRNA, average of 3 replicates) of the same compound?
A: 15.5767

Q: What about the “Normalised counts KSR1” value (KSR1 mRNA, single replicates) of the same compound?
A: 14.2 and 11.19 and 21.34

Q: And the “Average normalised counts KSR2” value (KSR2 mRNA, average of 3 replicates)?
A: 58.27

Q: And the “Normalised counts KSR2” value (KSR2 mRNA, single replicates)?
A: 61.47 and 55.49 and 57.85

Q: And the “Average normalised counts LATS1” value (LATS1 mRNA, average of 3 replicates)?
A: 1079.17

Q: And the “Normalised counts LATS1” value (LATS1 mRNA, single replicates)?
A: 1068.6 and 1080.61 and 1088.29

Q: And the “Average normalised counts LATS2” value (LATS2 mRNA, average of 3 replicates)?
A: 223.537

Q: And the “Normalised counts LATS2” value (LATS2 mRNA, single replicates)?
A: 222.36 and 229.24 and 219.01

Q: What about the “Average normalised counts LCK” value (LCK mRNA, average of 3 replicates) of the same compound?
A: 1

Q: What about the “Normalised counts LCK” value (LCK mRNA, single replicates) of the same compound?
A: 1

Q: And the “Average normalised counts LIMK1” value (LIMK1 mRNA, average of 3 replicates)?
A: 487.24

Q: What about the “Normalised counts LIMK1” value (LIMK1 mRNA, single replicates) of the same compound?
A: 499.59 and 471.62 and 490.51

Q: What about the “Average normalised counts LMTK2” value (LMTK2 mRNA, average of 3 replicates) of the same compound?
A: 633.213

Q: What about the “Normalised counts LMTK2” value (LMTK2 mRNA, single replicates) of the same compound?
A: 615.03 and 621.04 and 663.57

Q: What about the “Average normalised counts LMTK3” value (LMTK3 mRNA, average of 3 replicates) of the same compound?
A: 14.4067

Q: What about the “Normalised counts LMTK3” value (LMTK3 mRNA, single replicates) of the same compound?
A: 19.66 and 8.58 and 14.98

Q: And the “Average normalised counts LRRK1” value (LRRK1 mRNA, average of 3 replicates)?
A: 204.153

Q: And the “Normalised counts LRRK1” value (LRRK1 mRNA, single replicates)?
A: 193.27 and 214.47 and 204.72

Q: What about the “Average normalised counts LRRK2” value (LRRK2 mRNA, average of 3 replicates) of the same compound?
A: 465.12

Q: And the “Normalised counts LRRK2” value (LRRK2 mRNA, single replicates)?
A: 461.41 and 439.47 and 494.48

Q: What about the “Average normalised counts LTK” value (LTK mRNA, average of 3 replicates) of the same compound?
A: 1

Q: And the “Normalised counts LTK” value (LTK mRNA, single replicates)?
A: 1

Q: What about the “Average normalised counts LYN” value (LYN mRNA, average of 3 replicates) of the same compound?
A: 10.41

Q: And the “Normalised counts LYN” value (LYN mRNA, single replicates)?
A: 11.48 and 10.32 and 9.43

Q: And the “MAK Normalised counts Average” value (MAK mRNA, average of 3)?
A: 7.77

Q: And the “MAK Normalised counts (single replicates)” value (MAK mRNA, replicates 1-3)?
A: 7.84 and 6.84 and 8.63

Q: What about the “MAP2K1 Normalised counts Average” value (MAP2K1 mRNA, average of 3) of the same compound?
A: 1481.58

Q: What about the “MAP2K1 Normalised counts (single replicates)” value (MAP2K1 mRNA, replicates 1-3) of the same compound?
A: 1469.45 and 1465.46 and 1509.84

Q: What about the “MAP2K2 Normalised counts Average” value (MAP2K2 mRNA, average of 3) of the same compound?
A: 2403.01

Q: What about the “MAP2K2 Normalised counts (single replicates)” value (MAP2K2 mRNA, replicates 1-3) of the same compound?
A: 2394.14 and 2328.31

Q: And the “MAP2K3 Normalised counts Average” value (MAP2K3 mRNA, average of 3)?
A: 410.613

Q: What about the “MAP2K3 Normalised counts (single replicates)” value (MAP2K3 mRNA, replicates 1-3) of the same compound?
A: 415.06 and 378.66 and 438.12

Q: What about the “MAP2K4 Normalised counts Average” value (MAP2K4 mRNA, average of 3) of the same compound?
A: 708.25

Q: And the “MAP2K4 Normalised counts (single replicates)” value (MAP2K4 mRNA, replicates 1-3)?
A: 670.48 and 728.77 and 725.5

Q: What about the “MAP2K5 Normalised counts Average” value (MAP2K5 mRNA, average of 3) of the same compound?
A: 322.173

Q: And the “MAP2K5 Normalised counts (single replicates)” value (MAP2K5 mRNA, replicates 1-3)?
A: 317.8 and 316.98 and 331.74

Q: What about the “MAP2K6 Normalised counts Average” value (MAP2K6 mRNA, average of 3) of the same compound?
A: 279.153
